Data taken from publication PMC11119685, “Undescribed Cyclohexene and Benzofuran Alkenyl Derivatives from Choerospondias axillaris, a Potential Hypoglycemic Fruit” (Foods, 2024).
Read-outs that look alike come from different tables or passages of the source.

Molecular target: α-glucosidase (Saccharomyces cerevisiae, UniProt P53341)
Assay: α-Glucosidase inhibitory assay (pNPG substrate, absorbance at 405 nm)
Assay type: biochemical
Settings: for inhibition at 50 µM: read-out: Inhibition Rate (in vitro α-glucosidase inhibitory activity); for α-glucosidase inhibitory activity, in words: qualitative statement, tested at 50 μM
Protocol: The α-glucosidase inhibitory activity was evaluated according to a previous method. In brief, α-glucosidase solution (0.025 U/mL, dissolved in 0.1 M phosphate-buffered saline (PBS) solution with a pH of 6.8), was mixed with 50 μM inhibitor and incubated at 37 °C for 10 min. pNPG solution (1 μM, dissolved in 0.1 M PBS solution) was added to the mixed solution and incubated at 37 °C for 40 min. Sodium carbonate (1 M) solution was added to terminate the reaction. […] The absorbance was recorded at 405 nm usin a microplate reader. The α-glucosidase inhibitory rate was calculated as follows:
Inhibitory rate% = [(A0 − A1)/A0)] × 100%, where:
A0 and A1 represent the absorbance of the blank group (containing enzyme, pNPG, PBS buffer, and DMSO), the sample group (containing enzyme, pNPG, PBS buffer, and samples), respectively. IC50 values were computed based on the Reed–Muench method.
All data were analyzed and presented as mean values ± SD from three independent assays (n = 3). The IC50 values were determined by Graph Pad Prism version 5 (University of California, San Diego, CA, USA).

[1] = at a concentration of 50 μM, means ± SD (n = 3)

Sequence of α-glucosidase (P53341 whole entry): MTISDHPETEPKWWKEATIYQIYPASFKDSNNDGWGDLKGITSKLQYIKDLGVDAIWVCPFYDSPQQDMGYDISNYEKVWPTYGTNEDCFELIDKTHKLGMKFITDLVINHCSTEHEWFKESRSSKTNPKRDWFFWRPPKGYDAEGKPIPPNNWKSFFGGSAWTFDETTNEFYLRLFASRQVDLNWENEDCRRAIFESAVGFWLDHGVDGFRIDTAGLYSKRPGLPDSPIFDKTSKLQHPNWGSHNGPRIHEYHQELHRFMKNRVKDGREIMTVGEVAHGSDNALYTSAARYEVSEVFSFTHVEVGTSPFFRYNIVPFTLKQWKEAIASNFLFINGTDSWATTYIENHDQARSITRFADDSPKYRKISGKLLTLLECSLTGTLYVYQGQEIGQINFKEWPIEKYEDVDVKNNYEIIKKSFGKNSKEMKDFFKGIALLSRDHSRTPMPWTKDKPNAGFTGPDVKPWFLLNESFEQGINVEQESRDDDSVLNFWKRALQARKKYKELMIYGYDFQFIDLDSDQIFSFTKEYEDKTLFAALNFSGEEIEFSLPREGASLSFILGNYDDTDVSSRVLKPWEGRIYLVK

| Compound | inhibition at 50 µM [1] [%] | α-glucosidase inhibitory activity, in words | inhibition at 50 µM [%] |
| --- | --- | --- | --- |
| CCCCC=CCCCCCCCCCC1(O)CC(O)CCC1O [Compound 1, (1S,2R,4S)-2-[10′(Z)-pentadecenyl]-cyclohexane-1,2,4-triol] | -8.1 ± 2.4 |  |  |
| CCCCC=CCCCCCCCCCCCC1(O)CC(O)C=CC1O [Compound 2, (1S,2R,4S)-2-[12′(Z)-heptadecenyl]-cyclohex-5-en-1,2,4-triol] | -12.4 ± 0.66 |  |  |
| CCCCC=CCCCCCCCCCCCCCC1(O)CC(O)C=CC1O [Compound 3, (1S,2R,4S)-2-[14′(Z)-nonadecenyl]-cyclohex-5-en-1,2,4-triol] | -13.6 ± 1.7 |  |  |
| CCCCC=CCCCCCCCCCC(O)CC1=CC(=O)CCC1O [Compound 4, (4R,2′R)-dihydroxy-3-[12′(Z)-heptadecenyl]-2-cyclohexenone] | 11.1 ± 1.1 |  |  |
| CCCCC=CCCCCCCCCCC(O)CC1=CC(=O)CC(O)C1O [Compound 5, (4S,5S,2′R)-trihydroxy-3-[12′(Z)-heptadecenyl]-2-cyclohexenone] | -11.2 ± 0.94 |  |  |
| CCCC/C=C\CCCCCCCCCc1cc2cc(O)ccc2o1 [Compound 6, 2-[10′(Z)-pentadecenyl]-benzofuran-5-ol] | 97.7 ± 0.19 |  |  |
| Oc1cc(O)c2c(c1)O[C@H](c1ccc(O)c(O)c1)[C@@H](O)C2 [Compound 9, catechin] | 61.1 ± 1.6 | notable α-glucosidase inhibition |  |
| O=C1c2c(O)cc(O)cc2O[C@H](c2ccc(O)c(O)c2)[C@H]1O [Compound 10, dihydroquercetin] |  | comparable α-glucosidase inhibitory | 36.4 ± 0.72 |
| O=C1C[C@@H](c2ccc(O)cc2)Oc2cc(O)cc(O)c21 [Compound 13, naringenin] |  |  | 65.1 ± 2 |
| C[C@@H]1O[C@@H](Oc2c(-c3ccc(O)c(O)c3)oc3cc(O)cc(O)c3c2=O)[C@H](O)[C@H](O)[C@H]1O [Compound 14, quercetin-3-O-α-L-rhamnoside] |  | comparable α-glucosidase inhibitory | 26.2 ± 1.3 |

Further lines, with some results ahead:

| inhibition at 50 µM [1] [%] | α-glucosidase inhibitory activity, in words | Compound | inhibition at 50 µM [%] |
| --- | --- | --- | --- |
| 96.7 ± 0.51 |  | CCCC/C=C\CCCCCCCc1cc2cc(O)ccc2o1 [Compound 7, 2-[8′(Z)-tridecenyl]-benzofuran-5-ol] |  |
| 98.7 ± 0.2 |  | CCCC/C=C\CCCCCCCCCCCc1cc2cc(O)ccc2o1 [Compound 8, choerosponol A] |  |
| 43.8 ± 1.3 | comparable α-glucosidase inhibitory | O=C1c2c(O)cc(O)cc2O[C@H](c2ccc(O)cc2)[C@H]1O [Compound 11, dihydrokaempferol] |  |
| 66.6 ± 0.92 |  | O=C1C[C@@H](c2ccc(O)c(O)c2)Oc2cc(O)cc(O)c21 [Compound 12, eriodictyol] |  |
| 16.6 ± 0.57 | weak inhibitory activity | COc1cc([C@H]2c3cc(O)c(OC)cc3C[C@@H](CO)[C@@H]2CO)ccc1O [Compound 15, (+)-isolariciresinol] |  |
| 7.5 ± 1.4 | weak inhibitory activity | COc1cc([C@@H]2c3c(cc(OC)c(O)c3OC)C[C@H](CO)[C@H]2CO)cc(OC)c1O [Compound 16, (−)-lyoniresinol] |  |
| 37.6 ± 0.12 | weak inhibitory activity | COc1cc(C[C@@H](CO)[C@H](CO)Cc2ccc(O)c(OC)c2)ccc1O [Compound 17, (−)-secoisolariciresinol] |  |
| 4.8 ± 0.38 | weak inhibitory activity | COc1cc(C2OCC3C(c4cc(OC)c(O)c(OC)c4)OCC23)cc(OC)c1O (centres unmarked) [Compound 18, lirioresinol] |  |
